Results published in patent US20050197350A1, “Novel quinoline, tetrahydroquinazoline, and pyrimidine derivatives and methods of treatment related to the use thereof” (TAISHO PHARMACEUTICAL CO., LTD., priority 2003, published 2005).

What follows are molecules tested on MCH receptors (assay: MCH receptor activity class (method not given)). Conditions: not given.
Molecule Cc1cccc(C(=O)N[C@H]2CC[C@@H](Nc3cc(C)c4ccccc4n3)CC2)c1 [Example 2543, 3-methyl-N-{cis-4-[(4-methylquinolin-2-yl)amino]cyclohexyl}benzamide] has a class of 1.
For Cc1ccc(C(=O)N[C@H]2CC[C@@H](Nc3cc(C)c4ccccc4n3)CC2)cc1 [Example 2544, 4-methyl-N-{cis-4-[(4-methylquinolin-2-yl)amino]cyclohexyl}benzamide], the class was 1.
For Cc1cc(N[C@H]2CC[C@@H](NC(=O)c3ccc(F)cc3)CC2)nc2ccccc12 [Example 2545, 4-fluoro-N-{cis-4-[(4-methylquinolin-2-yl)amino]cyclohexyl}benzamide], the class was 1.
Cc1cc(N[C@H]2CC[C@@H](NC(=O)c3cccc(C(F)(F)F)c3)CC2)nc2ccccc12 [Example 2546, N-{cis-4-[(4-methylquinolin-2-yl)amino]cyclohexyl}-3-(trifluoromethyl)benzamide] gave a class of 3.
Cc1cc(N[C@H]2CC[C@@H](NC(=O)c3cccc(Cl)c3)CC2)nc2ccccc12 [Example 2547, 3-chloro-N-{cis-4-[(4-methylquinolin-2-yl)amino]cyclohexyl}benzamide] showed a class of 1.
For Cc1cc(N[C@H]2CC[C@@H](NC(=O)c3cc(C(F)(F)F)cc(C(F)(F)F)c3)CC2)nc2ccccc12 [Example 2548, N-{cis-4-[(4-methylquinolin-2-yl)amino]cyclohexyl}-3,5-bis(trifluoromethyl)benzamide], the class was 1.
COc1cccc(C(=O)N[C@H]2CC[C@@H](Nc3cc(C)c4ccccc4n3)CC2)c1 [Example 2549, 3-methoxy-N-{cis-4-[(4-methylquinolin-2-yl)amino]cyclohexyl}benzamide] gave a class of 1.
Work on Cc1cc(N[C@H]2CC[C@@H](NC(=O)c3cccc(C#N)c3)CC2)nc2ccccc12 [Example 2550, 3-cyano-N-{cis-4-[(4-methylquinolin-2-yl)amino]cyclohexyl}benzamide] yielded a class of 1.
With Cc1cc(N[C@H]2CC[C@@H](NC(=O)COc3ccc(Cl)cc3)CC2)nc2ccccc12 [Example 2551, 2-(4-chlorophenoxy)-N-{cis-4-[(4-methylquinolin-2-yl)amino]cyclohexyl}acetamide] the class was 1.
Work on COc1cc(C(=O)N[C@H]2CC[C@@H](Nc3cc(C)c4ccccc4n3)CC2)cc(OC)c1OC [Example 2552, 3,4,5-trimethoxy-N-{cis-4-[(4-methylquinolin-2-yl)amino]cyclohexyl}benzamide] yielded a class of 1.
COc1cc(OC)cc(C(=O)N[C@H]2CC[C@@H](Nc3cc(C)c4ccccc4n3)CC2)c1 [Example 2553, 3,5-dimethoxy-N-{cis-4-[(4-methylquinolin-2-yl)amino]cyclohexyl}benzamide] showed a class of 1.
COc1cccc(OCC(=O)N[C@H]2CC[C@@H](Nc3cc(C)c4ccccc4n3)CC2)c1 [Example 2554, 2-(3-methoxyphenoxy)-N-{cis-4-[(4-methylquinolin-2-yl)amino]cyclohexyl}acetamide] showed a class of 1.
Cc1cc(N[C@H]2CC[C@@H](NC(=O)[C@H](O)c3cccc(Cl)c3)CC2)nc2ccccc12 [Example 2555, (2R)-2-(3-chlorophenyl)-2-hydroxy-N-{cis-4-[(4-methylquinolin-2-yl)amino]cyclohexyl}acetamide] showed a class of 1.
Cc1cccc(OCC(=O)N[C@H]2CC[C@@H](Nc3cc(C)c4ccccc4n3)CC2)c1 [Example 2556, 2-(3-methylphenoxy)-N-{cis-4-[(4-methylquinolin-2-yl)amino]cyclohexyl}acetamide] gave a class of 1.
With Cc1cc(N[C@H]2CC[C@@H](NC(=O)c3ccc(Br)o3)CC2)nc2ccccc12 [Example 2557, 5-bromo-N-{cis-4-[(4-methylquinolin-2-yl)amino]cyclohexyl}-2-furamide] the class was 1.
Cc1cc(N[C@H]2CC[C@@H](NC(=O)Nc3ccc(OCc4ccccc4)cc3)CC2)nc2ccccc12 [Example 2558, N-[4-(benzyloxy)phenyl]-N′-{cis-4-[(4-methylquinolin-2-yl)amino]cyclohexyl}urea] was tested, and the class was 2.
Cc1cc(N[C@H]2CC[C@@H](NC(=O)Nc3ccc(Oc4ccccc4)cc3)CC2)nc2ccccc12 [Example 2559, N-{cis-4-[(4-methylquinolin-2-yl)amino]cyclohexyl}-N′-(4-phenoxyphenyl)urea] gave a class of 1.
Cc1cc(N[C@H]2CC[C@@H](NC(=O)Nc3cccc(Oc4ccccc4)c3)CC2)nc2ccccc12 [Example 2560, N-{cis-4-[(4-methylquinolin-2-yl)amino]cyclohexyl}-N′-(3-phenoxyphenyl)urea] showed a class of 2.
Cc1cc(N[C@H]2CC[C@@H](NC(=O)Nc3ccccc3Oc3ccccc3)CC2)nc2ccccc12 [Example 2561, N-{cis-4-[(4-methylquinolin-2-yl)amino]cyclohexyl}-N′-(2-phenoxyphenyl)urea] was tested, and the class was 1.
Molecule Cc1cccc(C(=O)N[C@H]2CC[C@@H](Nc3ncc(C)c(N(C)C)n3)CC2)c1 [Example 2562, N-(cis-4-{[4-(dimethylamino)-5-methylpyrimidin-2-yl]amino}cyclohexyl)-3-methylbenzamide] has a class of 1.
COc1cccc(C(=O)N[C@H]2CC[C@@H](Nc3ncc(C)c(N(C)C)n3)CC2)c1 [Example 2563, N-(cis-4-{[4-(dimethylamino)-5-methylpyrimidin-2-yl]amino}cyclohexyl)-3-methoxybenzamide] gave a class of 1.
Work on COc1cccc(C(=O)N[C@H]2CC[C@@H](Nc3nc(C)cc(N(C)C)n3)CC2)c1 [Example 2564, N-(cis-4-{[4-(dimethylamino)-6-methylpyrimidin-2-yl]amino}cyclohexyl)-3-methoxybenzamide] yielded a class of 1.
Cc1ccc(C(=O)N[C@H]2CC[C@@H](Nc3nc(C)cc(N(C)C)n3)CC2)cc1 [Example 2565, N-(cis-4-{[4-(dimethylamino)-6-methylpyrimidin-2-yl]amino}cyclohexyl)-4-methylbenzamide] was tested, and the class was 1.
With Cc1cc(N(C)C)nc(N[C@H]2CC[C@@H](NC(=O)c3ccc(Cl)cc3)CC2)n1 [Example 2566, 4-chloro-N-(cis-4-{[4-(dimethylamino)-6-methylpyrimidin-2-yl]amino}cyclohexyl)benzamide] the class was 1.
Cc1cc(N(C)C)nc(N[C@H]2CC[C@@H](NC(=O)c3cccc(Cl)c3)CC2)n1 [Example 2567, 3-chloro-N-(cis-4-{[4-(dimethylamino)-6-methylpyrimidin-2-yl]amino}cyclohexyl)benzamide] showed a class of 1.
Cc1cc(N(C)C)nc(N[C@H]2CC[C@@H](NC(=O)c3ccc(F)c(F)c3)CC2)n1 [Example 2568, N-(cis-4-{[4-(dimethylamino)-6-methylpyrimidin-2-yl]amino}cyclohexyl)-3,4-difluorobenzamide] was tested, and the class was 1.
Cc1cc(N(C)C)nc(N[C@H]2CC[C@@H](NC(=O)c3ccc(OC(F)(F)F)cc3)CC2)n1 [Example 2569, N-(cis-4-{[4-(dimethylamino)-6-methylpyrimidin-2-yl]amino}cyclohexyl)-4-(trifluoromethoxy)benzamide] showed a class of 3.
Work on Cc1cc(N(C)C)nc(N[C@H]2CC[C@@H](NC(=O)c3ccc(F)cc3)CC2)n1 [Example 2570, N-(cis-4-{[4-(dimethylamino)-6-methylpyrimidin-2-yl]amino}cyclohexyl)-4-fluorobenzamide] yielded a class of 1.

Same assay, conditions: class by percent of control at 10^-7 M or IC50
CCOC(=O)c1cccc(NC(=S)N[C@H]2CC[C@@H](Nc3nc4c(c(N(C)C)n3)CCCC4)CC2)c1 [Example 1773] was tested, and the class was 3 (Class 3 The value of percent of control at 10^−7 M was more than 60% or the value of IC50 was more than 200 nM.).
With CN(C)c1nc(N[C@H]2CC[C@@H](NC(=S)Nc3ccc(Cl)cc3C(F)(F)F)CC2)nc2c1CCCC2 [Example 1774] the class was 2 (Class 2: The value of percent of control at 10^−7 M was from 40% to 60% or the value of IC′50 was from 50 nM to 200 nM.).

Same assay, conditions: class by percent of control at 10^−7 M or IC50
Cc1cnc(N[C@H]2CC[C@@H](NC(=O)C(C)c3ccc(Cl)cc3)CC2)nc1N(C)C (relative stereo) [compound 2874, 2-(4-chlorophenyl)-N-(cis-4-{[4-(dimethylamino)-5-methylpyrimidin-2-yl]amino}cyclohexyl)propanamide] was tested, and the class was 1 (Class 1: The value of percent of control at 10^−7 M was less than 40% or the value of IC50 was less than 50 nM.).
For Cc1cnc(N[C@H]2CC[C@@H](NC(=O)C(O)c3ccc(Cl)cc3)CC2)nc1N(C)C (relative stereo) [compound 2876, 2-(4-chlorophenyl)-N-(cis-4-{[4-(dimethylamino)-5-methylpyrimidin-2-yl]amino}cyclohexyl)-2-hydroxyacetamide], the class was 1 (Class 1: The value of percent of control at 10^−7 M was less than 40% or the value of IC50 was less than 50 nM.).
With Cc1cnc(N[C@H]2CC[C@@H](NC(=O)C[S+]([O-])c3ccccc3C(F)(F)F)CC2)nc1N(C)C (relative stereo) [compound 2880] the class was 1 (Class 1: The value of percent of control at 10^−7 M was less than 40% or the value of IC50 was less than 50 nM.).
In the case of Cc1cnc(N[C@H]2CC[C@@H](NC(=O)C[S+]([O-])c3ccccc3Cl)CC2)nc1N(C)C (relative stereo) [compound 2881, 2-[(2-chlorophenyl)sulfinyl]-N-(cis-4-{[4-(dimethylamino)-5-methylpyrimidin-2-yl]amino}cyclohexyl)acetamide], the class is reported as 1 (Class 1: The value of percent of control at 10^−7 M was less than 40% or the value of IC50 was less than 50 nM.).
In the case of Cc1cnc(N[C@H]2CC[C@@H](NC(=O)C[S+]([O-])c3cccc(Br)c3)CC2)nc1N(C)C (relative stereo) [compound 2882, 2-[(3-bromophenyl)sulfinyl]-N-(cis-4-{[4-(dimethylamino)-5-methylpyrimidin-2-yl]amino}cyclohexyl)acetamide], the class is reported as 1 (Class 1: The value of percent of control at 10^−7 M was less than 40% or the value of IC50 was less than 50 nM.).
Cc1cnc(N[C@H]2CC[C@@H](NC(=O)C[S+]([O-])c3ccc(F)c(F)c3)CC2)nc1N(C)C (relative stereo) [compound 2883, 2-[(3,4-difluorophenyl)sulfinyl]-N-(cis-4-{[4-(dimethylamino)-5-methylpyrimidin-2-yl]amino}cyclohexyl)acetamide] was tested, and the class was 2 (Class 2: The value of percent of control at 10^−7 M was from 40% to 60% or the value of IC′50 was from 50 nM to 200 nM.).
